From patent US20100144652A1, “COMPOSITION COMPRISING A GLYCOLYTIC INHIBITOR AND A RING SYSTEM COMPRISING A SULPHAMATE GROUP FOR THE TREATMENT OF CANCER” (Sterix Limited, priority 2007, published 2010)
Entries after “also recorded” stand apart in the source; their conditions may differ. Like-named read-outs stand apart in the source and are kept apart here.

Key:
[1] = cited from earlier work
[2] = cited from earlier work; remark: listed apart in the source
steroid sulphatase = biological target: T1, steroid sulphatase (Homo sapiens, UniProt P08842); conditions: compared with EMATE; cited from earlier work
T1 sequence (P08842 22-583): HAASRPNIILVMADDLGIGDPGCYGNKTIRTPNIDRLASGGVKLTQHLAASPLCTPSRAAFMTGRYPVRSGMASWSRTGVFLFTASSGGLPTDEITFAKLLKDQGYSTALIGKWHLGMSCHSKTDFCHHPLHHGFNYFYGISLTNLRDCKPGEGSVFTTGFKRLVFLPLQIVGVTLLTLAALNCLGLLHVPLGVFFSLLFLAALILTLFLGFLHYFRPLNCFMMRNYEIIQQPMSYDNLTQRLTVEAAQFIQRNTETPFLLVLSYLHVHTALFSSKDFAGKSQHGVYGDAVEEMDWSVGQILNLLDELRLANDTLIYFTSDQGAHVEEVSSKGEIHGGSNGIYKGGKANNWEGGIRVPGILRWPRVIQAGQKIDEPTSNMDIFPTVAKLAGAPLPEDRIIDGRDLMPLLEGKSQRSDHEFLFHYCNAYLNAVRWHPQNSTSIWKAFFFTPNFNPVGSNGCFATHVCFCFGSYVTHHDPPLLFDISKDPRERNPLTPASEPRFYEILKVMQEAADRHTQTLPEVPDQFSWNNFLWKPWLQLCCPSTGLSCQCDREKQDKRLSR

LNCaP cells [3] = experiment: Proliferation assay (Alamar blue, microtiter plate); assay type: cell-based; conditions: Homo sapiens; for inhibition at 8000 µM: 2DG alone 8 mM, read-out: inhibition of cell growth
Experimental: (§1) MCF-7 and LNCaP cells were obtained from the American Tissue Culture Collection (ATCC). Cells were cultured in the following supplements, obtained from Sigma: RPMI 1640 with 10% foetal bovine serum, 1% L-glutamine, 1% MEM non-essential amino acids, 1% sodium bicarbonate solution, LNCaP cells also required 1% sodium pyruvate. Cells were maintained in an incubator at 37° C. under 5% CO2 and 95% air atmosphere.
(§2) MCF-7 and LNCaP cells were seeded at 3000 cells/well or 5000 cells/well respectively, in 96 well plates. Compounds were added 4 hours after seeding of cells. […]
(§3) An Innova co-48 CO2 humidified incubator (Newbrunswick Scientific, St. Albans, U.K.) was used to study the effects of 2DG and STX140 on cells under hypoxic conditions. Oxygen was maintained at 1%, CO2 5% and temperature at 37° C.

MCF-7 cells [4] = experiment: as above; assay type: cell-based; conditions: Homo sapiens; for inhibition at 8000 µM / inhibition at 0.5 µM: MCF7, 72 h; for inhibition at 8000 µM: MCF-7, 2DG alone 8 mM, 72 h, read-out: inhibition of cell growth
Experimental: as §1, §2, §3

MCF-7 tumours = experiment: In vivo tumour xenograft model, MCF-7 cell tumours; conditions: athymic nude mice, STX140 5 mg/kg p.o. daily, 2DG 2 g/kg i.p. daily, 28 days, compared to control
Experimental: Intact, ovariectomized, athymic, female MF-1 nude mice (nu-/nu-) were purchased from Harlan (Bicester, Oxon, UK) at 5 weeks of age (˜20-25 g in weight). All experiments were carried out under conditions that complied with institutional guidelines. Animals were kept in a 12-hour light/12-hour dark cycle and given food and water ad libitum. Monolayers of MCF-7 cells were removed by trypsinization, and the resultant cell suspension was centrifuged for 5 min. at 1,000×g and then resuspended in ice-cold matrigel (BD Biosciences). Five million MCF-7 cells were injected s.c. into the right flank of the animals. The tumours were allowed to grow for 2 weeks, when the tumours reached 100-150 mm^3 in volume, mice were randomly divided into four treatment groups: 1) vehicle (10% tetrahydrofuran; 90% propylene glycol, […] oral)+saline i.p. 200 ml; 2) vehicle+2DG (2 g/kg) i.p. 200 ml; 3) STX140 (5 mg/kg) […] oral+saline i.p. 200 ml; 4) STX140 (5 mg/kg) […] oral+2DG (2 g/kg) i.p. 200 ml. All treatments were administered daily for 4 weeks, […]. Throughout the study, mice were weighed and tumour measurements were taken on a weekly basis. Tumour volumes were calculated using the formula: length×width^2/2. At the end of the study, tumours were collected for immunohistochemical analysis.

LNCaP cells [5] = experiment: Measurement of ATP (ATPlite assay); assay type: cell-based; conditions: 2DG 8 mM, 72 h; for ATP levels: normoxia or hypoxia, STX140 0.1 μM-1 μM, vs untreated normoxic controls
Experimental: as §3
(§4) MCF-7 and LNCaP cells were seeded at 3000 cells/well or 5000 cells/well respectively, in 96 well plates. Compounds were added 4 hours following seeding of cells. The ATPlite assay procedure was carried out according to manufacturer's instructions (Perkin Elmer, Beaconsfield, U.K.) and ATP measured 72 hrs later using a FluoStar Optima Plate reader.

MCF-7 cells [6] = experiment: Measurement of ATP (ATPlite assay); assay type: cell-based; conditions: for ATP levels: MCF-7, 72 h, normoxia or hypoxia, 2DG 8 mM, STX140 0.1 μM-1 μM, vs untreated normoxic controls
Experimental: as §3, §4

von Willebrand's factor = von Willebrand's factor immunohistochemistry of xenograft sections (vessel density); assay type: in vivo, mice; conditions: sections of MCF-7 xenografts, STX140 5 mg/kg p.o. daily, 2DG 2 g/kg i.p. daily
[7] = tested on: r^□ cells which have lost their mitochondrial DNA; conditions: Liu et al., 2001; cited from earlier work
LNCaP cells [8] = experiment: Cell morphology (microscopy); assay type: cell-based; conditions: STX140 0.5 μM, 2DG 8 mM, 96 h, normoxia
Source text: (§5) Cells were examined using a Zeiss inverted microscope fitted with a 20× and 40× Plan-Neofluor objective, and analysed through an Axiovision imaging system attached to the microscope.

MCF-7 cells [9] = experiment: Cell morphology (microscopy); assay type: cell-based; conditions: MCF-7, STX140 0.5 μM, 2DG 8 mM, 96 h, normoxia
Source text: as §5

vessel formation = conditions: novel co-culture model system, Newman et al., 2004; cited from earlier work
MCF-7 cells [10] = conditions: MCF-7, previously calculated by Day and Newman; read-out: IC50, inhibition of proliferation; cited from earlier work
LNCaP cells [11] = conditions: previously calculated by Day and Newman, read-out: IC50, inhibition of proliferation; cited from earlier work
breast cancer cells = conditions: Raobaikady et al., 2003; cited from earlier work
HUVEC cells = conditions: Newman et al., 2004; cited from earlier work
p-glycoprotein = p-glycoprotein (Homo sapiens, UniProt P08183); conditions: Suzuki, 2003; cited from earlier work
Sequence of p-glycoprotein (P08183 whole entry): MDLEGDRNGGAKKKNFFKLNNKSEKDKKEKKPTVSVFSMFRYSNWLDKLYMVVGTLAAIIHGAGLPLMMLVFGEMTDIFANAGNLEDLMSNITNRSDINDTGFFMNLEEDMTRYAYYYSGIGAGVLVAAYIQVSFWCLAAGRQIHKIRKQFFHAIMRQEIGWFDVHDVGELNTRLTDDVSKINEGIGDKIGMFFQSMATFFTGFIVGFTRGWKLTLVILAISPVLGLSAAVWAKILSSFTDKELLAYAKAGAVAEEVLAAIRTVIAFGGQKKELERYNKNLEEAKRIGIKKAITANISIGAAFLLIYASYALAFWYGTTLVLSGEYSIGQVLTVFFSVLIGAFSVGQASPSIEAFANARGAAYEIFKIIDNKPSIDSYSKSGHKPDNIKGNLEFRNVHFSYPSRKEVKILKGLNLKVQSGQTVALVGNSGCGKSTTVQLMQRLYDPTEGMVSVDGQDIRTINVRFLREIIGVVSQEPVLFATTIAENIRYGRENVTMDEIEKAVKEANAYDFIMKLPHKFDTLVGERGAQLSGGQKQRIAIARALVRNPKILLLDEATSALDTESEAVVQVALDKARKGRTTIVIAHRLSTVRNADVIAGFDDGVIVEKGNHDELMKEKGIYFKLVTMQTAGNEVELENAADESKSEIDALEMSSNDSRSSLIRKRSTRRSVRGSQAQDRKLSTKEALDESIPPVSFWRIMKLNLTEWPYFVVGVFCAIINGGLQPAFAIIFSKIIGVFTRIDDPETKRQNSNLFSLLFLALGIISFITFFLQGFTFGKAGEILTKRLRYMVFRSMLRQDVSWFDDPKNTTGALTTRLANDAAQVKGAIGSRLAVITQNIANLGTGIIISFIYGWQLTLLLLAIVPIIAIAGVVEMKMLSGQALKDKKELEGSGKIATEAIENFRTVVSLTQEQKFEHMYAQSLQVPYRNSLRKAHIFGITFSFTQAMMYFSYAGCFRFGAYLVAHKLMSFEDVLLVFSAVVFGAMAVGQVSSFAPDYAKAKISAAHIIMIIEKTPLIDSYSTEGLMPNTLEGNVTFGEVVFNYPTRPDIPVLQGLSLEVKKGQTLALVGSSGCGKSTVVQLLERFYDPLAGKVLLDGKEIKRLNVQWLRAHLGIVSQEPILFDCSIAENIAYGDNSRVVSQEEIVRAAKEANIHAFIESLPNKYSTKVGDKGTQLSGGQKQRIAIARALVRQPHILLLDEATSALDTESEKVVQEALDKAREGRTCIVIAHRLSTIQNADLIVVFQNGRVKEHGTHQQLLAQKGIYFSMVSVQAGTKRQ

In the case of `COc1cc2c(cc1O)CC[C@@H]1[C@@H]2CC[C@]2(C)[C@@H](O)CC[C@@H]12` [2-MeOE2, 2-methoxyoestradiol, reference compound], the oral bioavailability ([1]; in vivo, po) is listed as “very poor oral bioavailability”.
For `COc1cc2c(cc1OS(N)(=O)=O)CC[C@@H]1[C@@H]2CC[C@]2(C)C(=O)CC[C@@H]12` [2-methoxyoestrone-3-O-sulphamate], the oestrogenicity ([2]; rat, in vivo) is given as “devoid of oestrogenicity” and the “potency as steroid sulphatase inhibitor” value (steroid sulphatase) is given as “equipotent with EMATE”.
`O=CC[C@@H](O)[C@H](O)[C@H](O)CO` [2DG, 2-deoxy-D-glucose] gave an inhibition at 8000 µM (LNCaP cells [3]; 72 h, hypoxic, 72 h) of 75%, an inhibition at 8000 µM (LNCaP cells [3]; 72 h, normoxic, 72 h) of 50% and an IC50 (LNCaP cells [3]; 120 h, 5 day period, normoxic conditions, read-out: IC50, inhibition of proliferation) of 6700 µM. For the same molecule, the inhibition at 8000 µM (MCF-7 cells [4]; hypoxic) was 70%, the inhibition at 8000 µM (MCF-7 cells [4]; normoxic) was 50% and the IC50 (MCF-7 cells [4]; MCF7, 120 h, MCF-7, 5 day period, normoxic conditions, read-out: IC50, inhibition of proliferation) was 8100 µM. For the same molecule, the “growth of MCF-7 tumours” value (MCF-7 tumours) was “did not significantly inhibit tumour growth”, the “ATP per living cell” value (LNCaP cells [5]; vs untreated controls) was “significantly decreases ATP” and the ATP levels (LNCaP cells [5]) was “decreases ATP”. For the same molecule, the “ATP per living cell” value (MCF-7 cells [6]; MCF-7, 2DG 8 mM, 72 h, vs untreated controls) was “significantly decreases ATP”, the ATP levels (MCF-7 cells [6]) was “decreases ATP” and the “von Willebrand's factor staining for endothelial cells (blood vessels)” value (von Willebrand's factor) was “no significant effect”. The “sensitivity of cells lacking mitochondrial DNA relative to wt cells” value [7] was 10 times, the cell morphology (LNCaP cells [8]) was “cells appear to swell up” and the cell morphology (MCF-7 cells [9]) was “cells appear to swell up”.
In the case of `C[C@]12CC[C@@H]3c4ccc(OS(N)(=O)=O)cc4CC[C@H]3[C@@H]1CCC2=O` [EMATE, oestrone-3-O-sulphamate], the “oral uterotrophic activity relative to estradiol” value ([2]; rats, oral) is listed as 100 times.
For `COc1cc2c(cc1OS(N)(=O)=O)CCC1C2CC[C@]2(C)C(OS(N)(=O)=O)CCC12` (stereo partly shown) [STX140, 2-Methoxyestradiol-3,17-O,O-bis-sulfamate], the “activity as inhibitor of vessel formation compared to 2-MeOE2” value (vessel formation) is given as 10-13 times, the IC50 (MCF-7 cells [10]) is given as 0.25 µM and the IC50 (LNCaP cells [11]) is given as 0.26 µM. The oral bioavailability ([1]; literature (Ireson 2004)) was “orally bioavailable”, the “potency as inhibitor of breast cancer cells compared to 2-MeOE2” value (breast cancer cells) was 6 times and the “inhibition of proliferation of HUVEC cells compared to 2-MeOE2” value (HUVEC cells) was 60 fold. The IC50 (LNCaP cells [3]; 72 h, read-out: IC50, inhibition of proliferation, LNCaP, hypoxic, 72 h) was 0.316 µM, the IC50 (LNCaP cells [3]; 72 h, read-out: IC50, inhibition of proliferation, LNCaP, normoxic, 72 h) was 0.293 µM and the inhibition at 0.5 µM (LNCaP cells [3]; 72 h, read-out: inhibition of cell proliferation) was 65%. For the same molecule, the inhibition at 0.5 µM (MCF-7 cells [4]; read-out: inhibition of cell proliferation, MCF-7, STX140 0.5 μM, hypoxia, 72 h, vs normoxic untreated controls) was 48%, the inhibition at 0.5 µM (MCF-7 cells [4]; read-out: inhibition of cell proliferation, MCF-7, STX140 0.5 μM, normoxia, 72 h, vs normoxic untreated controls) was 45% and the “growth of MCF-7 tumours” value (MCF-7 tumours; 5 mg/kg) was “significantly inhibited”. For the same molecule, the ATP levels (LNCaP cells [5]) was “drops significantly”, the ATP levels (MCF-7 cells [6]) was “drops significantly” and the “von Willebrand's factor staining for endothelial cells (blood vessels)” value (von Willebrand's factor; 5 mg/kg) was “decrease in blood vessels; also recorded: significant reduction”. The substrate for p-glycoprotein (p-glycoprotein) was “not a substrate for p-glycoprotein”, the cell morphology (LNCaP cells [8]) was “shrivelled appearance” and the cell morphology (MCF-7 cells [9]) was “shrivelled appearance”.
